Measurements published in ChEMBL document CHEMBL1201862, “PubChem BioAssay data set” (2004).
Active and inactive are the calls of the source.

Assays:
[1] = biological target: T1, Rac GTPase-activating protein 1 (Homo sapiens, UniProt Q9H0H5); test: MgcRacGAP GTPase-activating activity inhibitors, confirmation, biochemical, ADP Hunter fluorescence, primary and confirmatory (AID 624330); assay type: functional
T1 sequence (Q9H0H5 whole entry): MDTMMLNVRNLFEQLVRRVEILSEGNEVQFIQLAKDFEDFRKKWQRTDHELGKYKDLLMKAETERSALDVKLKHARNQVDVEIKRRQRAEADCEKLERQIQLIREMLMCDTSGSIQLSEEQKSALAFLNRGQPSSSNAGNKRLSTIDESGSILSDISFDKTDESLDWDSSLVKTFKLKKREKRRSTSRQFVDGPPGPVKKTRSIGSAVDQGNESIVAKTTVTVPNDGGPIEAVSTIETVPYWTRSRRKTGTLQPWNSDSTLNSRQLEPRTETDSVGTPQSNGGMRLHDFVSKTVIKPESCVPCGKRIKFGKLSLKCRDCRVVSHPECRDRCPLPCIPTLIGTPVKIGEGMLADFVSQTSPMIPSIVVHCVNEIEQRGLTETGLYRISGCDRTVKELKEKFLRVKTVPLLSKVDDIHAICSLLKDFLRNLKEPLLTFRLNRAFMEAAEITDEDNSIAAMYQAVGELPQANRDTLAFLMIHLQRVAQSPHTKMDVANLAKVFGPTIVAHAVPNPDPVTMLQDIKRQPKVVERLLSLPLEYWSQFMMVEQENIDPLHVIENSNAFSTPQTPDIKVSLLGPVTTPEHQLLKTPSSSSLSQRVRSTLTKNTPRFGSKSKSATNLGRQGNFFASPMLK

[2] = biological target: T2, Sentrin-specific protease 1 (Homo sapiens, UniProt Q9P0U3); test: potency of human SENP1 inhibitors, dose response, biochemical, kinetic FRET (AID 651697); assay type: functional; settings: read-out: IC50_Mean
[3] = biological target: T2, Sentrin-specific protease 1; test: Dose response confirmation of small molecule inhibitors of the catalytic domain of the SUMO protease, SENP1 in a FRET assay.; assay type: functional; settings: read-out: IC50_Mean
[4] = biological target: T3, RNA-binding protein pos-1 (Caenorhabditis elegans, UniProt G5EF15); test: inhibitors of POS-1/mex-3 RNA binding, dose response, biochemical, fluorescence polarization (AID 1964);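 note: purified POS-1 fused to maltose binding protein made in E. coli; potency of compounds blocking POS-1 binding to fluorescent RNA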
T3 sequence (G5EF15 whole entry): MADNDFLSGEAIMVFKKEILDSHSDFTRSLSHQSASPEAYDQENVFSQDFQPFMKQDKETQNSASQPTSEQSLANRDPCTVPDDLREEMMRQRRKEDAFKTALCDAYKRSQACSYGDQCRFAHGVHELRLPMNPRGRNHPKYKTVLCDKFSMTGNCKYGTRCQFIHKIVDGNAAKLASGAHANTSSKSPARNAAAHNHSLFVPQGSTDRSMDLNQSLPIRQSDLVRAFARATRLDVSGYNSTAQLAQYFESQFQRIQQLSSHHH

[5] = biological target: T4, Zinc finger protein mex-5 (Caenorhabditis elegans, UniProt Q9XUB2); test: MEX-5/TCR-2 RNA interaction inhibitors, dose response, biochemical, C. elegans, fluorescence polarization (AID 1960)
T4 sequence (Q9XUB2 whole entry): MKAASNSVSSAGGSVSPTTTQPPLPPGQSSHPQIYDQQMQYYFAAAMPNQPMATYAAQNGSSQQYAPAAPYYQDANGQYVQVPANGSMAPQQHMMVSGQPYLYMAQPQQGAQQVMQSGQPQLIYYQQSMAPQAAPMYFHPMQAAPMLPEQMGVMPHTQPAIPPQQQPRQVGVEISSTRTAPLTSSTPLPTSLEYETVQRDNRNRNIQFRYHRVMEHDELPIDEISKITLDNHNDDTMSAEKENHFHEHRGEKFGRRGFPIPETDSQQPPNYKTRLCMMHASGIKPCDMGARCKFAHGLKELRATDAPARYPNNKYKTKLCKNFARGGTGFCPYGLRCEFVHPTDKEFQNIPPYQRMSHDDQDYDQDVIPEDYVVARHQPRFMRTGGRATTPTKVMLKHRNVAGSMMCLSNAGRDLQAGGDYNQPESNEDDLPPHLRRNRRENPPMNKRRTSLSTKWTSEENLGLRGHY

[6] = biological target: Long-chain-fatty-acid--AMP ligase FadD28 (Mycobacterium tuberculosis, UniProt P9WQ59); test: Fluorescence polarization aasay to screen for inhibitors that compete for the binding of FadD28 to a bisubstrate Measured in Biochemical System Using Plate Reader - 2147-01_Inhibitor_Dose_CherryPick_Activity.; assay type: functional, Mycobacterium tuberculosis H37Rv
Chain of Long-chain-fatty-acid--AMP ligase FadD28 (P9WQ59 whole entry): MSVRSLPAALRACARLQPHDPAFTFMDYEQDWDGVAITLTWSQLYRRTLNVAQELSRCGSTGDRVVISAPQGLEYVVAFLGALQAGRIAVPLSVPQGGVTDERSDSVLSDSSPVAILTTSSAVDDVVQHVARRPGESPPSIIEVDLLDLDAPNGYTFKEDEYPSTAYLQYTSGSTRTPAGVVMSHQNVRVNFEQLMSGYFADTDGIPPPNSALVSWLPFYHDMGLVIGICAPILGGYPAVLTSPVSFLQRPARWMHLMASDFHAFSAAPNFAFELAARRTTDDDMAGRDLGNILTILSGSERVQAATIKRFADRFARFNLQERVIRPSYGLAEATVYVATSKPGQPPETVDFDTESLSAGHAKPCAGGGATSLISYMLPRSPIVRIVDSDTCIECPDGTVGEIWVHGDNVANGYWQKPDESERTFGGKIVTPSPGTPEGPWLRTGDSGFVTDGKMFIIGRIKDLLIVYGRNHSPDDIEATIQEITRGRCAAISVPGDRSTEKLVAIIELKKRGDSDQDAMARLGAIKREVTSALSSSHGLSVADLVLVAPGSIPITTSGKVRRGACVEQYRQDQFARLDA

T2 sequence (Q9P0U3 whole entry, the tested form may be a part): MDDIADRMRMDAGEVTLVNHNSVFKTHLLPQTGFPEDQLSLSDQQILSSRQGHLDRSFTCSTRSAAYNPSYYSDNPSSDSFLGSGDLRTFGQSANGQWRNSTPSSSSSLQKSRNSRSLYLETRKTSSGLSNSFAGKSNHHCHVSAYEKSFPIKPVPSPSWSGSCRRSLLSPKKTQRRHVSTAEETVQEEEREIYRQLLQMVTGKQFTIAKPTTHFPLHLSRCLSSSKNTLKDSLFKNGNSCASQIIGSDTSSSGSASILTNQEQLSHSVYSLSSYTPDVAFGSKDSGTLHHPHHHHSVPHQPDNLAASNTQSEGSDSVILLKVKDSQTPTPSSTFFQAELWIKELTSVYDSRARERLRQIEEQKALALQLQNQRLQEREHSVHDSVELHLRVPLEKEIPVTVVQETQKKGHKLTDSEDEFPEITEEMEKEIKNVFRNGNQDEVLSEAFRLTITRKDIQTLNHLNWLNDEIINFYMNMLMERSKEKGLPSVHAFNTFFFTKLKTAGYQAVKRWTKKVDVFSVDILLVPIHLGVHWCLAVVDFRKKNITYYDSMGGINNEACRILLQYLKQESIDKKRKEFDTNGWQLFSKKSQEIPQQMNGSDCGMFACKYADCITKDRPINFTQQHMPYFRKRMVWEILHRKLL

Compound | IC50 [1] | IC50 [2] | IC50 [3] | EC50 [4] | EC50 [5] | AC50 [6]
CC1(C)CC2=Nc3ccccc3SC2=C(O)C1 | 22.1 µM (active) | 29 µM (inactive) | 42.4 µM (inactive) | 43.9 µM (active) | 59.3 µM (active) | –
Cc1cccc(NC(=O)Cn2c(=O)oc3ccccc32)n1 | – | – | – | – | – | 27.9 µM (active)
